From patent US11806342B2, “Diiodohydroxyquinoline for the treatment of clostridium difficile infection” (Purdue Research Foundation, priority 2019, dated 2023)
≈ marks a conversion by molar mass, not a printed value.

Legend:
Assay type in all cases: cell-based, Clostridium difficile
C. difficile ATCC 1801 = assay: MIC and MBC, broth microdilution; conditions: Clostridioides difficile, ATCC1801, C. difficile ATCC 1801; for MBC: read-out: MBC; for MIC: read-out: MIC
Description: (§1) Antibacterial activity of Diiodohydroxyquinoline against a wide panel of Clostridium difficile strains. […] MIC50 and MIC90 are the minimum concentration of each agent that inhibited growth of 50% and 90% of the tested isolates, respectively. The minimum bactericidal concentration (MBC) of these drugs was tested by plating 5 μL from wells with no growth onto BHIS agar plates. The MBC was categorized as the lowest concentration that reduced bacterial growth by 99.9% MIC50 and MIC90 are the minimum concentration of each agent that inhibited the growth of 50% and 90% of the tested isolates, respectively. The minimum bactericidal concentration (MBC) of these drugs was tested by plating 5 μL from wells with no growth onto BHIS agar plates. The MBC was categorized as the lowest concentration that reduced bacterial growth by 99.9% [29-31].

C. difficile ATCC 43255 [1] = assay: MIC and MBC, broth microdilution; conditions: Clostridioides difficile, ATCC43255, C. difficile ATCC 43255; for MBC: read-out: MBC; for MIC: read-out: MIC
Description: as §1

C. difficile HM-745 = assay: MIC and MBC, broth microdilution; conditions: Clostridioides difficile, HM745, C. difficile HM-745; for MBC: read-out: MBC; for MIC: read-out: MIC
Description: as §1

C. difficile I10 = assay: MIC and MBC, broth microdilution; conditions: Clostridioides difficile, C. difficile I10; for MBC: read-out: MBC; for MIC: read-out: MIC
Description: as §1

C. difficile I11 = assay: MIC and MBC, broth microdilution; conditions: Clostridioides difficile, C. difficile I11; for MBC: read-out: MBC; for MIC: read-out: MIC
Description: as §1

C. difficile I13 = assay: MIC and MBC, broth microdilution; conditions: Clostridioides difficile, C. difficile I13; for MBC: read-out: MBC; for MIC: read-out: MIC
Description: as §1

C. difficile I6 = assay: MIC and MBC, broth microdilution; conditions: Clostridioides difficile, C. difficile I6; for MBC: read-out: MBC; for MIC: read-out: MIC
Description: as §1

C. difficile I9 = assay: MIC and MBC, broth microdilution; conditions: Clostridioides difficile, C. difficile I9; for MBC: read-out: MBC; for MIC: read-out: MIC
Description: as §1

C. difficile NR-49278 = assay: MIC and MBC, broth microdilution; conditions: Clostridioides difficile, NR49278, C. difficile NR-49278; for MBC: read-out: MBC; for MIC: read-out: MIC
Description: as §1

C. difficile NR-49285 = assay: MIC and MBC, broth microdilution; conditions: Clostridioides difficile, NR49285, C. difficile NR-49285; for MBC: read-out: MBC; for MIC: read-out: MIC
Description: as §1

C. difficile NR-49288 = assay: MIC and MBC, broth microdilution; conditions: Clostridioides difficile, NR49288, C. difficile NR-49288; for MBC: read-out: MBC; for MIC: read-out: MIC
Description: as §1

C. difficile P15 = assay: MIC and MBC, broth microdilution; conditions: Clostridioides difficile, C. difficile P15; for MBC: read-out: MBC; for MIC: read-out: MIC
Description: as §1

C. difficile P19 = assay: MIC and MBC, broth microdilution; conditions: Clostridioides difficile, C. difficile P19; for MBC: read-out: MBC; for MIC: read-out: MIC
Description: as §1

C. difficile P20 = assay: MIC and MBC, broth microdilution; conditions: Clostridioides difficile, C. difficile P20; for MBC: read-out: MBC; for MIC: read-out: MIC
Description: as §1

C. difficile P30 = assay: MIC and MBC, broth microdilution; conditions: Clostridioides difficile, C. difficile P30; for MBC: read-out: MBC; for MIC: read-out: MIC
Description: as §1

C. difficile P3 = assay: MIC and MBC, broth microdilution; conditions: Clostridioides difficile, C. difficile P3; for MBC: read-out: MBC; for MIC: read-out: MIC
Description: as §1

C. difficile P5 = assay: MIC and MBC, broth microdilution; conditions: Clostridioides difficile, C. difficile P5; for MBC: read-out: MBC; for MIC: read-out: MIC
Description: as §1

C. difficile P6 = assay: MIC and MBC, broth microdilution; conditions: Clostridioides difficile, C. difficile P6; for MBC: read-out: MBC; for MIC: read-out: MIC
Description: as §1

[2] = test system: C. difficile ATCC BAA-1870; assay: Time kill kinetics assay; conditions: C. difficile ATCC BAA-1870, 5×MIC, 37° C.
Description: (§2) Time kill kinetics assay. In order to examine the killing kinetics of DIHQ, a time kill kinetics assay was performed against Clostridium difficile ATCC BAA 1870 and C. difficile NR-49277 as described previously. […] Aliquots were collected from each treatment after 0, 4, 6, 8, 12, and 24 hours of incubation at 37° C. and subsequently serially diluted and plated for viable CFU/mL determination.

C. difficile NR-49277 [3] = assay: Time kill kinetics assay; conditions: C. difficile NR-49277, 5×MIC, 37° C.
Description: as §2

C. difficile ATCC 43255 [4] = assay: Toxin A and B production inhibition, ELISA; conditions: for inhibition of total toxin production: 8 hours
Description: (§3) To investigate DIHQs toxin production inhibitory activity, toxin A and toxin B levels were measured as described previously. […] An aliquot from each tube was diluted and plated on BHIS agar plates and incubated anaerobically at 37° C. for 24 hours to detect the bacterial count. The total concentration of C. difficile toxin A and B was measured in the supernatant of each tube using enzyme linked immunosorbent assay (ELISA) kit (tgc BIOMICS, Dunwoody, GA) following the manufacturer's instructions. The (OD450-OD620) values, corresponding to the toxin concentration, were measured for DIHQ and control drugs.

[5] = test system: C. difficile ATCC BAA-1870; assay: Toxin A and B production inhibition, ELISA; conditions: for inhibition of total toxin production: 8 hours
Description: as §3

C. difficile NR-49277 [6] = assay: Toxin A and B production inhibition, ELISA; conditions: for inhibition of total toxin production: 8 hours
Description: as §3

SMILES: Cc1ncc([N+](=O)[O-])n1CCO [Metronidazole, metronidazole]
- MBC (C. difficile ATCC 1801): 0.25 mg/L (≈ 1.46 µM)
- MIC (C. difficile ATCC 1801): 0.25 mg/L (≈ 1.46 µM)
- MBC (C. difficile ATCC 43255 [1]): 0.25 mg/L (≈ 1.46 µM)
- MIC (C. difficile ATCC 43255 [1]): 0.25 mg/L (≈ 1.46 µM)
- MBC (C. difficile HM-745): 0.5 mg/L (≈ 2.92 µM)
- MIC (C. difficile HM-745): 0.5 mg/L (≈ 2.92 µM)
- MBC (C. difficile I10): 0.25 mg/L (≈ 1.46 µM)
- MIC (C. difficile I10): 0.25 mg/L (≈ 1.46 µM)
- MBC (C. difficile I11): 0.25 mg/L (≈ 1.46 µM)
- MIC (C. difficile I11): 0.25 mg/L (≈ 1.46 µM)
- MBC (C. difficile I13): 0.5 mg/L (≈ 2.92 µM)
- MIC (C. difficile I13): 0.25 mg/L (≈ 1.46 µM)
- MBC (C. difficile I6): 0.25 mg/L (≈ 1.46 µM)
- MIC (C. difficile I6): 0.25 mg/L (≈ 1.46 µM)
- MBC (C. difficile I9): 0.06 mg/L (≈ 0.351 µM)
- MIC (C. difficile I9): 0.06 mg/L (≈ 0.351 µM)
- MBC (C. difficile NR-49278): 0.5 mg/L (≈ 2.92 µM)
- MIC (C. difficile NR-49278): 0.25 mg/L (≈ 1.46 µM)
- MBC (C. difficile NR-49285): 0.5 mg/L (≈ 2.92 µM)
- MIC (C. difficile NR-49285): 0.25 mg/L (≈ 1.46 µM)
- MBC (C. difficile NR-49288): 0.25 mg/L (≈ 1.46 µM)
- MIC (C. difficile NR-49288): 0.25 mg/L (≈ 1.46 µM)
- MBC (C. difficile P15): 0.25 mg/L (≈ 1.46 µM)
- MIC (C. difficile P15): 0.25 mg/L (≈ 1.46 µM)
- MBC (C. difficile P19): 0.25 mg/L (≈ 1.46 µM)
- MIC (C. difficile P19): 0.25 mg/L (≈ 1.46 µM)
- MBC (C. difficile P20): 0.25 mg/L (≈ 1.46 µM)
- MIC (C. difficile P20): 0.25 mg/L (≈ 1.46 µM)
- MBC (C. difficile P30): 0.5 mg/L (≈ 2.92 µM)
- MIC (C. difficile P30): 0.5 mg/L (≈ 2.92 µM)
- MBC (C. difficile P3): 0.25 mg/L (≈ 1.46 µM)
- MIC (C. difficile P3): 0.25 mg/L (≈ 1.46 µM)
- MBC (C. difficile P5): 0.25 mg/L (≈ 1.46 µM)
- MIC (C. difficile P5): 0.25 mg/L (≈ 1.46 µM)
- MBC (C. difficile P6): 0.25 mg/L (≈ 1.46 µM)
- MIC (C. difficile P6): 0.25 mg/L (≈ 1.46 µM)
- time required to generate a 3-log10 reduction in CFU/mL [2]: 12 hours
- time required to generate a 3-log10 reduction in CFU/mL (C. difficile NR-49277 [3]): 12 hours
- toxin inhibition (in words) (C. difficile ATCC 43255 [4]; C. difficile ATCC 43255, ¼×MIC and ½×MIC): No toxin inhibition
- toxin inhibition (in words) ([5]; C. difficile ATCC BAA-1870, ¼×MIC and ½×MIC): No toxin inhibition
- toxin inhibition (in words) (C. difficile NR-49277 [6]; C. difficile NR-49277, ¼×MIC and ½×MIC): No toxin inhibition

SMILES: Oc1c(I)cc(I)c2cccnc12 [DIHQ, 5,7-diiodoquinolin-8-ol]
- MBC (C. difficile ATCC 1801): 4 mg/L (≈ 10.1 µM)
- MIC (C. difficile ATCC 1801): 2 mg/L (≈ 5.04 µM)
- MBC (C. difficile ATCC 43255 [1]): 0.5 mg/L (≈ 1.26 µM)
- MIC (C. difficile ATCC 43255 [1]): 0.5 mg/L (≈ 1.26 µM)
- MBC (C. difficile HM-745): 1 mg/L (≈ 2.52 µM)
- MIC (C. difficile HM-745): 1 mg/L (≈ 2.52 µM)
- MBC (C. difficile I10): 1 mg/L (≈ 2.52 µM)
- MIC (C. difficile I10): 1 mg/L (≈ 2.52 µM)
- MBC (C. difficile I11): 1 mg/L (≈ 2.52 µM)
- MIC (C. difficile I11): 1 mg/L (≈ 2.52 µM)
- MBC (C. difficile I13): 2 mg/L (≈ 5.04 µM)
- MIC (C. difficile I13): 2 mg/L (≈ 5.04 µM)
- MBC (C. difficile I6): 0.5 mg/L (≈ 1.26 µM)
- MIC (C. difficile I6): 0.5 mg/L (≈ 1.26 µM)
- MBC (C. difficile I9): 0.06 mg/L (≈ 0.151 µM)
- MIC (C. difficile I9): 0.06 mg/L (≈ 0.151 µM)
- MBC (C. difficile NR-49278): 0.5 mg/L (≈ 1.26 µM)
- MIC (C. difficile NR-49278): 0.25 mg/L (≈ 0.63 µM)
- MBC (C. difficile NR-49285): 1 mg/L (≈ 2.52 µM)
- MIC (C. difficile NR-49285): 1 mg/L (≈ 2.52 µM)
- MBC (C. difficile NR-49288): 0.5 mg/L (≈ 1.26 µM)
- MIC (C. difficile NR-49288): 0.25 mg/L (≈ 0.63 µM)
- MBC (C. difficile P15): 1 mg/L (≈ 2.52 µM)
- MIC (C. difficile P15): 1 mg/L (≈ 2.52 µM)
- MBC (C. difficile P19): 1 mg/L (≈ 2.52 µM)
- MIC (C. difficile P19): 0.5 mg/L (≈ 1.26 µM)
- MBC (C. difficile P20): 1 mg/L (≈ 2.52 µM)
- MIC (C. difficile P20): 1 mg/L (≈ 2.52 µM)
- MBC (C. difficile P30): 0.5 mg/L (≈ 1.26 µM)
- MIC (C. difficile P30): 0.5 mg/L (≈ 1.26 µM)
- MBC (C. difficile P3): 2 mg/L (≈ 5.04 µM)
- MIC (C. difficile P3): 2 mg/L (≈ 5.04 µM)
- MBC (C. difficile P5): 4 mg/L (≈ 10.1 µM)
- MIC (C. difficile P5): 2 mg/L (≈ 5.04 µM)
- MBC (C. difficile P6): 0.5 mg/L (≈ 1.26 µM)
- MIC (C. difficile P6): 0.5 mg/L (≈ 1.26 µM)
- time required to generate a 3-log10 reduction in CFU/mL [2]: six
- time to complete eradication of the bacteria (below the detection limit, 100 CFU/mL) [2]: ≤ 24 h
- time required to generate a 3-log10 reduction in CFU/mL (C. difficile NR-49277 [3]): 4 hours
- time to complete eradication of the bacteria (below the detection limit, 100 CFU/mL) (C. difficile NR-49277 [3]): ≤ 6 h
- inhibition of total toxin production (C. difficile ATCC 43255 [4]; C. difficile ATCC 43255, ¼×MIC): ~8%
- inhibition of total toxin production (C. difficile ATCC 43255 [4]; C. difficile ATCC 43255, ½×MIC): ~28.5%
- inhibition of total toxin production ([5]; C. difficile ATCC BAA-1870, ¼×MIC): 17.8%
- inhibition of total toxin production ([5]; C. difficile ATCC BAA-1870, ½×MIC): 27%
- inhibition of total toxin production (C. difficile NR-49277 [6]; C. difficile NR-49277, ¼×MIC): ~31.8%
- inhibition of total toxin production (C. difficile NR-49277 [6]; C. difficile NR-49277, ½×MIC): ~38.9%
